Measurements from ChEMBL document CHEMBL4825722, “Discovery of Potent Selective Nonzinc Binding Autotaxin Inhibitor BIO-32546” (ACS Med Chem Lett, 2021).

Legend:
hERG (KCNH2) = hERG (KCNH2) (Homo sapiens, UniProt Q12809); assay: Inhibition of human ERG at 10 uM by automated patch-clamp assay relative to control
[1] = AUC (0 to 24 hrs) in cynomolgus monkey at 0.2 mg/kg, iv; format: ADME, organism-based, Macaca fascicularis; set-up: time < 24 hr, route intravenous, dose 0.2 mg/kg; settings: in vivo
[2] = Cmax in cynomolgus monkey at 1.0 mg/kg, po; format: ADME, organism-based, Macaca fascicularis; set-up: route oral, dose 1 mg/kg; settings: in vivo
[3] = Tmax in dog at 1.0 mg/kg, po; format: ADME, organism-based, Canis lupus familiaris; settings: in vivo
[4] = Tmax in cynomolgus monkey at 1.0 mg/kg, po; format: ADME, organism-based, Macaca fascicularis; settings: in vivo
[5] = Oral bioavailability in rat at 10 mg/kg; format: ADME, organism-based; settings: in vivo
[6] = Protein binding in human plasma assessed as unbound fraction at 2 uM by rapid equilibrium dialysis method; format: ADME, cell-free
Cytochrome P450 1A2 = target: T1, Cytochrome P450 1A2 (Homo sapiens, UniProt P05177); assay: Inhibition of CYP1A2 in human liver microsomes incubated for 15 mins in presence of NADPH by LC-MS/MS analysis; format: ADME
T1 sequence (P05177 whole entry): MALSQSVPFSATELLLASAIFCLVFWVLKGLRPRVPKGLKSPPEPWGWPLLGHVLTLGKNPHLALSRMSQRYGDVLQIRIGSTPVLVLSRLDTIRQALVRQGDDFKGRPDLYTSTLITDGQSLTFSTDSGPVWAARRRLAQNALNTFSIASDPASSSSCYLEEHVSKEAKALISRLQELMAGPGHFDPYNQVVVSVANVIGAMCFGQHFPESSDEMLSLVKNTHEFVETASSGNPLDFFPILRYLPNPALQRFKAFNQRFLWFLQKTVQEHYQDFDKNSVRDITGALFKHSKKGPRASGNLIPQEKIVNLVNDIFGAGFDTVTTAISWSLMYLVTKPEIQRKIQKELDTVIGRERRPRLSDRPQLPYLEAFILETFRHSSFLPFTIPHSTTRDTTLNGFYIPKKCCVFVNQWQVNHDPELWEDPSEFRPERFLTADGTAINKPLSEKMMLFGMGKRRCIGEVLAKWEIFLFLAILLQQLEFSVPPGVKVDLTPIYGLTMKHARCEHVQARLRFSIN

Cytochrome P450 2C19 = Cytochrome P450 2C19 (Homo sapiens, UniProt P33261); assay: Inhibition of CYP2C19 in human liver microsomes incubated for 30 mins in presence of NADPH by LC-MS/MS analysis; format: ADME
Cytochrome P450 2D6 = Cytochrome P450 2D6 (Homo sapiens, UniProt P10635); assay: Inhibition of CYP2D6 in human liver microsomes incubated for 15 mins in presence of NADPH by LC-MS/MS analysis; format: ADME
[7] = Clearance in C57BL/6 mouse plasma at 2.32 mg/kg; format: ADME, organism-based
[8] = Half life in C57BL/6 mouse plasma at 2.32 mg/kg; format: ADME, organism-based
[9] = AUC (0 to 24 hrs) in C57BL/6 mouse brain at 10 mg/kg, po; format: ADME, organism-based; set-up: time < 24 hr, route oral, dose 10 mg/kg
[10] = Cmax in C57BL/6 mouse plasma at 2.32 mg/kg, iv; format: ADME, organism-based; set-up: route intravenous, dose 2.32 mg/kg
[11] = Cmax in C57BL/6 mouse brain at 10 mg/kg, po; format: ADME, organism-based; set-up: route oral, dose 10 mg/kg
Rattus norvegicus [12] = assay: Effect on Sprague-Dawley rat CFA inflammatory […] model assessed as reduction in 20:4 LPA level at 3 mg/kg, po after 6 hrs by LC-MS/MS analysis; format: functional; set-up: scale not given: the % may be the effect or the level left
[13] = target: Sphingosine 1-phosphate receptor 2 (Homo sapiens, UniProt O95136); assay: Inhibition of S1P2 (unknown origin)
[14] = target: Sphingosine 1-phosphate receptor 5 (Homo sapiens, UniProt Q9H228); assay: Inhibition of S1P5 (unknown origin)
[15] = target: Lysophosphatidic acid receptor 1 (Homo sapiens, UniProt Q92633); assay: Inhibition of LPA1 (unknown origin)
[16] = target: Lysophosphatidic acid receptor 2 (Homo sapiens, UniProt Q9HBW0); assay: Inhibition of LPA2 (unknown origin)
[17] = target: T2, Lysophosphatidic acid receptor 3 (Homo sapiens, UniProt Q9UBY5); assay: Inhibition of LPA3 (unknown origin)
T2 sequence (Q9UBY5 whole entry): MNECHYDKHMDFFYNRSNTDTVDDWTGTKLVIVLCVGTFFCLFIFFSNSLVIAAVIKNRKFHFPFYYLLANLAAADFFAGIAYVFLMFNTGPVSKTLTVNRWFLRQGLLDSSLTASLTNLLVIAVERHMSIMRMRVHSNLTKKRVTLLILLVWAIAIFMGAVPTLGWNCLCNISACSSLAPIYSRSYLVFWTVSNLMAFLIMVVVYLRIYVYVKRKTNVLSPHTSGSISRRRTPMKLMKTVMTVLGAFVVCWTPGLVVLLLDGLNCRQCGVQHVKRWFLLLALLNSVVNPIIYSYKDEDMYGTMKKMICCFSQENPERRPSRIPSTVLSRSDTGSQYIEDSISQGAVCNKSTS

[18] = target: Lysophosphatidic acid receptor 5 (Homo sapiens, UniProt Q9H1C0); assay: Inhibition of LPA5 (unknown origin)
[19] = target: Voltage-gated inwardly rectifying potassium channel KCNH2 (Homo sapiens, UniProt Q12809); assay: Inhibition of human ERG by automated patch-clamp assay
[20] = Drug concentration in mouse brain at 10 mg/kg, po; format: ADME, organism-based; settings: in vivo
[21] = Drug concentration in Sprague-Dawley rat at 0.1 mg/kg, po after 6 hrs by LC-MS/MS analysis; format: ADME, organism-based; settings: in vivo, read-out: Drug uptake
[22] = Drug concentration in Sprague-Dawley rat at 0.3 mg/kg, po after 6 hrs by LC-MS/MS analysis; format: ADME, organism-based; settings: in vivo, read-out: Drug uptake
Rattus norvegicus [23] = assay: Effect on po dosed Sprague-Dawley rat CFA inflammatory pain model assessed as reduction in LPA level administered day 2 post CFA challenge and measured after 6 hrs by LC-MS/MS analysis; settings: dose 0.1-10 mg/kg

Sequence of Cytochrome P450 2C19 (P33261 whole entry): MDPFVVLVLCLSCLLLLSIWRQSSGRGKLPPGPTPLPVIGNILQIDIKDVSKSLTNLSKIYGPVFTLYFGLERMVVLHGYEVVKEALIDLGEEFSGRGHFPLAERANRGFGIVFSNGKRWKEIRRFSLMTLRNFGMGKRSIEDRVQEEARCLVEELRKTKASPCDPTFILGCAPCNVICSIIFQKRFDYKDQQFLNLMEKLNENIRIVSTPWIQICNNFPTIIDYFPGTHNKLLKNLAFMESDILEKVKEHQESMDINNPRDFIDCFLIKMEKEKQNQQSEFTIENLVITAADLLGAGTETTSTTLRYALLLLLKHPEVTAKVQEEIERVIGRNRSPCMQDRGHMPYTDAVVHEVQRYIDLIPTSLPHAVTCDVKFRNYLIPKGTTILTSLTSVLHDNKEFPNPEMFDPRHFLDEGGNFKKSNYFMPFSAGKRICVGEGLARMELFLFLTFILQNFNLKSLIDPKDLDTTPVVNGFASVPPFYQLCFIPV
Sequence of Voltage-gated inwardly rectifying potassium channel KCNH2 (Q12809 whole entry): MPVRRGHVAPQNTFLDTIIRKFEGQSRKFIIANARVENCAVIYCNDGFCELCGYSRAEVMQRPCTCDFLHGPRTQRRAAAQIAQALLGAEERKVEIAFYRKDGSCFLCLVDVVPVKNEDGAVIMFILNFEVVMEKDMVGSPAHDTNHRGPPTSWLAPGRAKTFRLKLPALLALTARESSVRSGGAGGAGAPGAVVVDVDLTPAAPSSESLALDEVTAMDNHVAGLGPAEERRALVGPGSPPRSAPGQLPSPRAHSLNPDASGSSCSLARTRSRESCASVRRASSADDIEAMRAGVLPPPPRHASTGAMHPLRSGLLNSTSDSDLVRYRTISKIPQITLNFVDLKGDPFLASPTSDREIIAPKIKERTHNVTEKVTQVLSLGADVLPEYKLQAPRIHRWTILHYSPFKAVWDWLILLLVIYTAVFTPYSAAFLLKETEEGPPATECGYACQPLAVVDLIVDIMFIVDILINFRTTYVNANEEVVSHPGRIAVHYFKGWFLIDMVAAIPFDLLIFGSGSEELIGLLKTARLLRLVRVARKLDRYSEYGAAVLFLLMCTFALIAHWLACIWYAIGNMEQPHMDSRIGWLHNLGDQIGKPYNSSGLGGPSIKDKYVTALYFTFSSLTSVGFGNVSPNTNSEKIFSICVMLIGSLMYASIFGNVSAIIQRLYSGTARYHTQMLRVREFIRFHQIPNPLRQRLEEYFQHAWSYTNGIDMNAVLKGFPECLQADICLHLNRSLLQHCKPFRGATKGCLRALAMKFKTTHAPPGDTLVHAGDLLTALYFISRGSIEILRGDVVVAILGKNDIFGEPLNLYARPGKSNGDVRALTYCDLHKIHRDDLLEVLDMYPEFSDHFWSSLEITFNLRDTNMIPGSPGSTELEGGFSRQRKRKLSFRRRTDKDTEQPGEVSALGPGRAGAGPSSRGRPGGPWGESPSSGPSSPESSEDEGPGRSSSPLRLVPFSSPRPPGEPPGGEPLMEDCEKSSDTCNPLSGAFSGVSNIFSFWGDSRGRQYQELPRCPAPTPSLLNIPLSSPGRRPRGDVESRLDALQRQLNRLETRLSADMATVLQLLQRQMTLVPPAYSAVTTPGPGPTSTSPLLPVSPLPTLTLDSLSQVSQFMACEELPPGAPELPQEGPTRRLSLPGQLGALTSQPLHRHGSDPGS
Sequence of hERG (KCNH2) (Q12809 whole entry): as above
Sequence of Cytochrome P450 2D6 (P10635 whole entry): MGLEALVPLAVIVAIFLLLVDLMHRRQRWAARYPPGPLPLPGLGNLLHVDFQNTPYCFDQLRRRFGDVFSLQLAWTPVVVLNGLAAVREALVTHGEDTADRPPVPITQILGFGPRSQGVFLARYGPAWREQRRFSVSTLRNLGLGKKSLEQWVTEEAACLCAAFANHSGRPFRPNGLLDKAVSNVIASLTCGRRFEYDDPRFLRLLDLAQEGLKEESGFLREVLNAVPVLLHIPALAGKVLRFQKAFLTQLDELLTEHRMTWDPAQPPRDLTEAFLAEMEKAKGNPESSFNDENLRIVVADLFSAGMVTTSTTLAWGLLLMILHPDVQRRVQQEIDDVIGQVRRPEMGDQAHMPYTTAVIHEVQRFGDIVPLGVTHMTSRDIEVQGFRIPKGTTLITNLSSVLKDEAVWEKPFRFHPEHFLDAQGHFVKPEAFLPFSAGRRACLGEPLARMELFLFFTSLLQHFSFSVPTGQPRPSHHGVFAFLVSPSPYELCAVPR
Sequence of Lysophosphatidic acid receptor 5 (Q9H1C0 whole entry): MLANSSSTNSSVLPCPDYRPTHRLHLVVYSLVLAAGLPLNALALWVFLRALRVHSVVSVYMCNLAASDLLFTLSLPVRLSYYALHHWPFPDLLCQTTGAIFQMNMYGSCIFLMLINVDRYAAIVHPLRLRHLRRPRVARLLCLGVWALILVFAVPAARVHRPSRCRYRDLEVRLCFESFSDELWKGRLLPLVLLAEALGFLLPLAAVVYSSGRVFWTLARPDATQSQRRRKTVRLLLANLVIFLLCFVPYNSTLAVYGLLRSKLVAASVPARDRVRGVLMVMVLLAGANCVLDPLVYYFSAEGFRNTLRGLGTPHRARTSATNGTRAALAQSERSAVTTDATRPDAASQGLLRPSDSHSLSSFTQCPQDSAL
Sequence of Sphingosine 1-phosphate receptor 5 (Q9H228 whole entry): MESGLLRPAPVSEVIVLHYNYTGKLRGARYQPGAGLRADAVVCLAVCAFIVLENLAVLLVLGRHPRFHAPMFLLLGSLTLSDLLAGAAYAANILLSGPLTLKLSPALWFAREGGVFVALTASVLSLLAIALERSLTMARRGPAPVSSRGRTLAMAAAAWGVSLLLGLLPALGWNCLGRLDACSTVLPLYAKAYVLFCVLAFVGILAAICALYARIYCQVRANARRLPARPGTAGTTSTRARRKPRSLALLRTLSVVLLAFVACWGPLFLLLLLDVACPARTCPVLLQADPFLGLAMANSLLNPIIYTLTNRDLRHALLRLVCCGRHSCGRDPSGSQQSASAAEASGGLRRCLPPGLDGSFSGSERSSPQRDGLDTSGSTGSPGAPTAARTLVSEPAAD
Sequence of Lysophosphatidic acid receptor 1 (Q92633 whole entry): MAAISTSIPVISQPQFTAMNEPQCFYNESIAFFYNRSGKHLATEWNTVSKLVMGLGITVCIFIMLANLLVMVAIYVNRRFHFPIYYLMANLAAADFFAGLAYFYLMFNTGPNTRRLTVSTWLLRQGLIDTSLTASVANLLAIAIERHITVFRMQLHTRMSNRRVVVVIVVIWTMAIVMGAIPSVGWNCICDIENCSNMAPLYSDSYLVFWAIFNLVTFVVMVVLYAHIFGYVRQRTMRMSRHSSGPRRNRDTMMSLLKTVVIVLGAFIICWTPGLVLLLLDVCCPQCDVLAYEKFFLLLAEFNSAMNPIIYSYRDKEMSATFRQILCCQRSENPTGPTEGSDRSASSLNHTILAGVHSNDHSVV
Sequence of Lysophosphatidic acid receptor 2 (Q9HBW0 whole entry): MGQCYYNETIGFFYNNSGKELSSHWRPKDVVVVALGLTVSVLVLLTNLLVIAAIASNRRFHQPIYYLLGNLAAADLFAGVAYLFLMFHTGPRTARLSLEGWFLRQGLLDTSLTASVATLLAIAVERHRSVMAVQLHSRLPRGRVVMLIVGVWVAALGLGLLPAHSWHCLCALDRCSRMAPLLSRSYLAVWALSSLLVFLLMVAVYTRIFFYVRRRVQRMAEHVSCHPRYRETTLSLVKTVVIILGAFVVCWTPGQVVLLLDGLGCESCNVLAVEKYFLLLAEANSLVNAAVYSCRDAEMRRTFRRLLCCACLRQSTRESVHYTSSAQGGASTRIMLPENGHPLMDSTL

Compound: C[C@@H](c1ccc2ccc(O[C@H]3CC[C@@H](C(F)(F)F)CC3)c(C(F)(F)F)c2c1)N1C2CCC1CC(C(=O)O)C2 (some centres not stated)
- inhibition at 10 µM (hERG (KCNH2)): 21.3%
- AUC(0-t) at 24 h [1]: 369 ng·h/mL
- Cmax [2]: 89 ng/mL
- Tmax [3]: 2 h
- Tmax [4]: 4 h
- bioavailability [5]: 66%
- Fu [6]: 0.66%
- IC50 (Cytochrome P450 1A2): > 10 µM
- IC50 (Cytochrome P450 2C19): > 10 µM
- IC50 (Cytochrome P450 2D6): > 10 µM
- clearance [7]: 6.09 mL/min/kg
- half-life [8]: 4.72 h
- AUC(0-t) at 24 h [9]: 8840 ng·h/mL
- Cmax [10]: 1270 ng/mL
- Cmax [11]: 823 ng/mL
- Activity (Rattus norvegicus [12]): 61%
- IC50 [13]: > 10 µM
- IC50 [14]: > 10 µM
- IC50 [15]: > 10 µM
- IC50 [16]: > 10 µM
- IC50 [17]: > 10 µM
- IC50 [18]: > 10 µM
- IC50 [19]: > 10 µM
- AUC [20]: 8840 ng·h/mL
- concentration at 6 h [21]: 0.95 ng/mL
- concentration at 6 h [22]: 4.3 ng/mL
- Activity (Rattus norvegicus [23]): Dose-Dependent Effect
